From BigSolDB 2.1

CC(C)=CCC[C@@H](C)[C@H]1CC[C@@]2(C)C3=C(CC[C@]12C)[C@@]1(C)CC[C@H](O)C(C)(C)[C@@H]1CC3
Settings	solubility (mole fraction)
in DMF, 277.15 K	0.00035
in DMF, 284.65 K	0.00051
in DMF, 289.15 K	0.00063
in DMF, 294.65 K	0.00073
in DMF, 297.35 K	0.00089
in DMF, 300.15 K	0.00103
in DMF, 303.05 K	0.00138
in DMF, 308.46 K	0.00187
in DMF, 318.55 K	0.00294
in DMSO, 293.95 K	0.00015
in DMSO, 297.65 K	0.00019
in DMSO, 302.35 K	0.00024
in DMSO, 307.15 K	0.00031
in DMSO, 312.95 K	0.00042
in DMSO, 318.69 K	0.00057
in DMSO, 337.99 K	0.00136
in acetone, 278.65 K	0.00066
in acetone, 283.75 K	0.00087
in acetone, 288.45 K	0.00105
in acetone, 293.25 K	0.00127
in acetone, 298.05 K	0.00157
in acetone, 302.75 K	0.00193
in acetone, 307.55 K	0.00237
in acetone, 318.36 K	0.0036
in acetonitrile, 277.09 K	3e-05
in acetonitrile, 288.55 K	6e-05
in acetonitrile, 293.35 K	9e-05
in acetonitrile, 298.15 K	0.00013
in acetonitrile, 303.05 K	0.00015
in acetonitrile, 307.55 K	0.00019
in acetonitrile, 312.25 K	0.00026
in acetonitrile, 317.05 K	0.00038
in ethanol, 277.95 K	0.00036
in ethanol, 285.74 K	0.00053
in ethanol, 293.45 K	0.00075
in ethanol, 298.25 K	0.00092
in ethanol, 307.15 K	0.00135
in ethanol, 312.35 K	0.00168
in ethanol, 318.05 K	0.00214
in ethyl acetate, 277.67 K	0.00076
in ethyl acetate, 288.55 K	0.00127
in ethyl acetate, 293.25 K	0.00165
in ethyl acetate, 298.05 K	0.00187
in ethyl acetate, 302.85 K	0.00235
in ethyl acetate, 307.45 K	0.00284
in ethyl acetate, 318.64 K	0.00443
in isopropanol, 278.07 K	0.00047
in isopropanol, 287.81 K	0.0006
in isopropanol, 298.84 K	0.00095
in isopropanol, 307.27 K	0.00159
in methanol, 277.78 K	3e-05
in methanol, 288.15 K	5e-05
in methanol, 298.15 K	9e-05
in methanol, 303.05 K	0.00011
in methanol, 312.15 K	0.00016
in methanol, 316.95 K	0.00021
in methanol, 321.65 K	0.00032
in n-propanol, 278.07 K	0.0009
in n-propanol, 287.81 K	0.00144
in n-propanol, 298.84 K	0.00209
in n-propanol, 307.27 K	0.00304
in n-propanol, 318.93 K	0.00478
